Measured values taken from PMC10707468, “Pharmacokinetics of Novel Dopamine Transporter Inhibitor CE-123 and Modafinil with a Focus on Central Nervous System Distribution” (International Journal of Molecular Sciences, 2023).
Where two headings read alike, the source gives them in different places.

Experiments:
[1] = Equilibrium dialysis, brain tissue binding; type: in vitro ADME, rat; settings: for fraction unbound at 5 h, 10 µM: whole brain homogenate (1:9 in PBS), rat brain homogenate 1:9 in PBS pH 7.4, 10 µM, corrected for dilution, read-out: Fraction unbound in brain homogenate, fu,brain
Experimental: (§1) A Teflon 96-well plate (model HTD96b, HTDialysis LLC, Gales Ferry, CT, USA) was used in all tissue-binding experiments. Th evaluation of PPB was determined according to van Liempd et al. (2011) and BTB according to the previously published protocols. […] The whole brain tissue from three rats was individually homogenized in 9 volumes of phosphate-buffered saline (PBS), pH 7.4. […] Then, 100 µL of spiked plasma or brain tissue homogenate in triplicate was dialyzed against an equal volume of PBS, pH 7.4, for 5 h at 37 °C and 200 rpm. Furthermore, 50 µL was taken from both sides of the membrane at the end of incubation. The unbound fraction of the compounds in the plasma (fu,plasma) or in the diluted (D) brain homogenate (fu,hD) was calculated according to the following equation:(1) fu,plasma or fu,hD=Cbuffer/Ctissue where Cbuffer represents the concentration of the compound measured in the buffer and Ctissue is the concentration measured in the plasma or brain tissue homogenate. Due to dilution, fu,hD is usually higher than the actual fu,brain. Thus, fu,hD was corrected for the dilution factor (D), which is in this case 10 times. (2) fu,brain=fu,hD/D+fu,hD−D·fu,hD

[2] = In vitro metabolic stability in human liver microsomes; type: in vitro ADME; settings: for % of the parent drug remaining / half-life at 1 µM / microsomal CLint at 1 µM: 1 µM; for % of the parent drug remaining: 60 min incubation; for half-life at 1 µM / microsomal CLint at 1 µM: human, human liver microsomes, pH 7.4; for half-life at 1 µM: 0.5 mg/mL protein, read-out: half-life (t1/2); for microsomal CLint at 1 µM: read-out: intrinsic clearance (CLint)
Experimental: An in vitro metabolism assay to study the phase I metabolism in the HLMs was in-house-developed. Optimization of the protocol included the test compound concentration (1, 5, 10 m and 50 µM) and extraction solvents (ACN and MeOH). […] The metabolic assay was initiated by the addition of 10 mM NADPH to the reaction solution and terminated after 0, 2.5, 5, 15, 30, 45, and 60 min via the addition of 200 µL of ice-cold MeOH containing the IS solution. The samples were than vortexed and spun for 15 min (14,000× g, 4 °C). The supernatant was collected, evaporated to dryness using the Concentrator plus (Eppendorf), and reconstituted with 100 µL of ACN/0.1% FA in water 10:90 (v:v). To ensure that the assay was performing adequately, the incubation of 1 µM diazepam at the same assay conditions as described was conducted, and the formation of its metabolites temazepam and nordazepam was monitored. A negative control included the absence of NADPH, the test compound, or HLMs during assay. […] The metabolic stability curves of the tested compounds were established by plotting the incubation time against the natural logarithm of the % parent drug remaining. The slope (k) of the linear part was utilized for the in vitro half-life (t1/2, min) as ln2/k. The V (µL/mg) was calculated as the volume of the reaction solution (100 µL) divided by the protein amount in the incubation (0.5 mg). The protein amount was predetermined by the supplier and the content was checked by using a Pierce™ BCA Protein Assay Kit (Thermo Fisher Scientific, Vienna, Austria) for each freshly opened tube. The intrinsic clearance (CLint, µL/min/mg) was calculated according to the following equation:(7) CLint=0.693/t1/2·V […]

DAT = settings: read-out: Half-maximal inhibitory concentration, IC50, cited from earlier work
[3] = system: cerebEND in vitro model of the blood–brain barrier; settings: 100 µM CE-123 and modafinil, Transwell cerebEND, blank inserts deducted; cited from earlier work
[4] = system: cerebEND in vitro model of the blood–brain barrier; assay: In vitro Transwell blood-brain barrier model based on mouse cell line cerebEND; type: in vitro ADME; settings: for Clin (rate of BBB transport) / Clout (rate of BBB transport): parameter used in simulation; for Pe rat: scaled with BBB surface area 180 cm2, similar permeability in rat assumed
Description: Research on modafinil analogs has gained significant momentum in recent decades due to the compound’s unique pharmacological properties and potential therapeutic applications. The primary objectives of these studies were to identify modafinil analogs that can address a wide range of cognitive deficits and neurological conditions effectively, with a reduced risk of side effects. In our previous study, we reported a series of modafinil analogs with higher DA reuptake inhibition activity and higher selectivity for the DAT in comparison to modafinil. These improvements were achieved by making strategic modifications involving the substitution of the carboxamide moiety with five- and six-membered aromatic heterocycles. […] In addition, Kristofova et al. (2018) have used the mouse cell line cerebEND as an in vitro model to study the ability of CE-123 to cross an in vitro model of the blood–brain barrier (BBB). […] Yet, due to significant differences in the plasma pharmacokinetic (PK) profiles, governed primarily by differences in metabolism, direct comparison between two compounds after single IP dosing could be misleading.
Table S4. Parameters used in simulation exercise.
Fraction of un bound in unitless 0.252 0.797
Rate of BBB transport parameters*
Ext ent of BBB transport and intra-brain dist ribution
Unbound brain-t o-plasma unitless 0.46 0.097 concentrati on rat io, Kp,uu,brain
Unbound volume of mL/g brain 5.21 3.73 distribution in brain, Vu,brain
Additional parameters used
Infusi on rate mg/h 0.05 1.0
* Data of blood-brain barrier per meation of 100 µM CE-123 and modafinil across an in vitro Transw ell model based on mouse cell line cerebEND were included in the simulation. Experimental procedures were published previously The permeability coefficients w ere calculated according to the clearance principle deduct ing blank inserts without cells.
**Similar apparent permeability in human BBB cell culture model and rat endot helial cells was assumed.

[5] = Equilibrium dialysis, plasma protein binding; type: in vitro ADME, rat; settings: for free (unbound) in plasma / Fraction unbound in plasma, fu,plasma: rat plasma; for Fraction unbound in plasma, fu,plasma / fraction unbound at 5 h, 10 µM: 10 µM, 5 h, 37 °C, plasma with 10% DMF; for fraction unbound at 5 h, 10 µM: rat, undiluted rat plasma containing 10% DMF, pH 7.4, rat plasma, read-out: Fraction unbound in plasma, fu,plasma
Experimental: as §1

| Compound | fraction unbound at 5 h, 10 µM [1] | % of the parent drug remaining ([2]; HLMs) [%] | metabolized ([2]; HLMs, 5, 10 and 50 µM) [%] | half-life at 1 µM ([2]; HLMs) [h] | microsomal CLint at 1 µM ([2]; HLMs) [µL/min/mg] | IC50 (DAT; ref Loland et al. 2012 [27]) [µM] | Pe (permeability coefficient) [3] [×10⁻⁶ cm/s] | Clin (rate of BBB transport) [4] [L/h] | Clout (rate of BBB transport) [4] [L/h] | Pe rat [4] [mL/min] | free (unbound) in plasma [5] [%] | Fraction unbound in plasma, fu,plasma [5] [unitless] | fraction unbound at 5 h, 10 µM [5] | brain tissue binding capacity, fold higher compared to R-modafinil ([1]; rat brain homogenate) [fold] | fold faster metabolism compared to R-modafinil ([2]; HLMs) [fold] | IC50 (DAT; ref Kristofova et al. 2018 [36]) [µM] |
| --- | --- | --- | --- | --- | --- | --- | --- | --- | --- | --- | --- | --- | --- | --- | --- | --- |
| NC(=O)C[S@@+]([O-])C(c1ccccc1)c1ccccc1 [R-modafinil, reference compound] | 0.23 ± 0.1 | 90 | ≤ 10 | 6.07 | […] | […] | 38.3 | 0.025 | 0.261 | 0.422 | 80 | 0.797 ± 0.15 | 0.79 |  |  |  |
| [O-][S@@+](Cc1cncs1)C(c1ccccc1)c1ccccc1 [S-CE-123] | 0.035 ± 0.012 | 35 |  | 0.65 | 3.6 |  | 50 | 0.033 | 0.071 | 0.545 | 25 | 0.252 ± 0.023 | 0.25 | 6.6 | 9.3 | 4.6 |
